Source: US20240299481A1, “STEPHANIA CEPHARANTHA-DERIVED ALKALOID-CONTAINING PREPARATION” (JAPAN AS REPRESENTED BY DIRECTOR-GENERAL OF NATIONAL …, priority 2021, published 2024)

System: novel coronavirus mutant strain (alpha mutant strain)
Type: cell-based, SARS-COV-2

Row | SMILES | antiviral effect (number of viral RNA with increasing addition concentration) | antiviral effect compared with the preparation / other alkaloids
1 | COc1cc2c3cc1Oc1c(OC)c(OC)cc4c1[C@@H](Cc1ccc(O)c(c1)Oc1ccc(cc1)C[C@@H]3N(C)CC2)N(C)CC4 [Berbamine] | showed antiviral effects | weak antiviral effect
2 | COc1ccc2cc1Oc1ccc(cc1)C[C@H]1c3c(cc4c(c3Oc3cc5c(cc3OC)CCN(C)[C@@H]5C2)OCO4)CCN1C [Cepharanthine] | showed antiviral effects | comparable to the Stephania cepharantha-derived alkaloid-containing preparation
3 | COc1cc2c3c(c1OC)Oc1ccc(cc1)C[C@@H]1c4c(cc(OC)c(OC)c4Oc4ccc(cc4)C[C@H]3N(C)CC2)CCN1C [Cycleanine] | showed antiviral effects | comparable to the Stephania cepharantha-derived alkaloid-containing preparation
4 | COc1ccc2cc1Oc1ccc(cc1)C[C@H]1c3cc(c(OC)cc3CCN1C)Oc1c(OC)c(OC)cc3c1[C@@H](C2)N(C)CC3 [Isotetrandrine] | showed antiviral effects | comparable to the Stephania cepharantha-derived alkaloid-containing preparation
